In article PMC4940876, “Post-paralysis tyrosine kinase inhibition with masitinib abrogates neuroinflammation and slows disease progression in inherited amyotrophic lateral sclerosis” (Journal of Neuroinflammation, 2016):

Biological target: T1, CSF-1R (colony-stimulating factor 1 receptor) (Homo sapiens, UniProt P07333)
T1 construct: gene CSF1R; CSF-1R kinase domain (AA 538–972), N-terminus 6HN-tagged, expressed in Sf21 cells
T1 sequence (P07333 538-972): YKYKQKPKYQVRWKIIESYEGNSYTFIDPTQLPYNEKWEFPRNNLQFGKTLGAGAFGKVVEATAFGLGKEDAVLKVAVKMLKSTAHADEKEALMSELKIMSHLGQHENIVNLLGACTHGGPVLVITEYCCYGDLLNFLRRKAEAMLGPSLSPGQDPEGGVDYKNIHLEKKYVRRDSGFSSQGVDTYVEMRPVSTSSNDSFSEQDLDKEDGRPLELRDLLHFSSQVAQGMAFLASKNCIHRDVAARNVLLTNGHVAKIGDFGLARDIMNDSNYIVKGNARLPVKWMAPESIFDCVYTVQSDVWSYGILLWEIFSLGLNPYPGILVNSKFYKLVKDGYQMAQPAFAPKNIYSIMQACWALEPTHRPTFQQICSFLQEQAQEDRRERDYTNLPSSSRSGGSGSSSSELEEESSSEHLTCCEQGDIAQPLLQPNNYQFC
Experiment: HTRF KinEASE kinase assay with biotinylated poly(Glu4Tyr) peptide, […] ATP
Type: biochemical

Question: Which IC50 does the source give for `Cc1ccc(NC(=O)c2ccc(CN3CCN(C)CC3)cc2)cc1Nc1nc(-c2cccnc2)cs1` [masitinib] here?
Answer: 90 ± 35 nM
